“And” between values parts separate entries of the source, which are not always exact repeats. Equal entries are not always repeated. sCy5 = sulfo-Cy5

Consider six substances from article PMC12830989, “Subcellular glycan-mannose receptor binding kinetics correlate with myeloid cell function” (Nature Communications, 2025).

The experiment concerns WT BMDC with OT-I T cells. Put plainly: T cell proliferation assay (cross-presentation to OT-I T cells), WT BMDC. In kind it is cell-based, mouse. Conditions: Fig 4f source data; 40 nM SLP pulse 2 h, MPLA-matured BMDC, 3 d coculture with OT-I; per experiment, two technical replicates. On the procedure: A 70 µm filter was placed on a 50 mL tube and pre-wetted with PBS supplemented with 2 mM EDTA and 2% FCS (single-cell suspension buffer, SCSB). Freshly harvested spleens from OT-I transgenic mice were placed on the filter and disrupted with the back end of a syringe. After thorough washing, the suspension was centrifuged (10 min., 300 rcf, rt). Next, the pellet was gently resuspended in 2 mL of ACK lysing buffer (Gibco, A1049201). After 3 min incubation, the suspension was diluted with 10 mL PBS, filtered once more, and centrifuged again (300 rcf, 10 min, rt). The pellet was resuspended and subjected to magnetically-activated depletion of non-target cells using the “Naïve CD8a+ T cell isolation Kit” (Miltenyi, 130-096-543) according to manufacturer’s protocol. The obtained T cells were counted and resuspended at a density of 5-15 x 10^6/mL in 1 mL PBS with 5 µM CFSE (Biolegend) and incubated for 15 min. at 37 °C. After incubation, cells were spun down (10 min, 300 rcf, rt), washed once more with complete RPMI-1640 and were ready for downstream use.
5 x 10^4 WT, MR^−/− BMDC or 1 x 10^5 splenic DC were seeded in 96-well Nunc U-bottom plates (Thermo Scientific, 168136) and pulsed with Glycan SLP at 40 nM for indicated time. In indicated experiments, DC were pretreated with 1 µg/mL MPLA (Avanti, 699800 P) for 2 h before antigen pulse. After antigen pulse was finished, the plate was spun down for 3 min at 600 rcf, washed once with complete RPMI-1640 and 1-1.5E5 freshly isolated, CFSE-stained OT-I T cells were added to the pulsed DCs in 200 µL complete RPMI-1640 and incubated at 37 °C. After 3 d of coculture, the plate was spun down (3 min, 600 rcf, 4 °C) and supernatant was removed and stored at −80 °C. Cells were washed with FACS buffer (PBS with 2 mM EDTA, 2% FCS and 7.4 mM NaN3) and stained with Aqua Live/DEAD (Invitrogen, L34957, 1:500), TruStain FcX (Biolegend, 101319, 1:100), CD8a—APC (clone: 53-7.6, Biolegend, 100711, 1:200), and TCR V beta 5.1/5.2—eFluor450 (clone: MR9-4, eBioscience, 48-5796-82) for 30 min on ice, washed two times and acquired on a BD Fortessa I flow cytometer and analyzed using FlowJo v8. To calculate mean cycle, the CFSE dilution factor was obtained by dividing the MFI of the antigen pulsed condition by the DMSO pulsed condition expressed as Log2[69]. Statistical analysis and plotting were performed using GraphPad Prism V10.

Consider “Ac-Lys(triMan)-Lys(triMan)-Lys(triMan)-Lys(triMan)-Lys(triMan)-Lys(triMan)-TEG-Asp-Glu-Val-Ser-Gly-Leu-Glu-Gln-Leu-Glu-Ser-Ile-Ile-Asn-Phe-Glu-Lys-Leu-Ala-Ala-Ala-Ala-Ala-Lys(sCy5)-NH2 (DEVSGLEQLESIINFEKLAAAAAK; six Lys(triMan), TEG, sulfo-Cy5, C-amide; printed: Asp-Glu-Val-Ser-Gly-Leu-Glu-Gln-Leu-Glu-Ser-Ile-Ile-Asn-Phe-Glu-Lys-Leu-Ala-Ala-Ala-Ala-Ala-Lys) [6 Tri(6), hexavalent trimannosylated OVA SLP with sulfo-Cy5]”, for which the “average number of cell divisions per T cell (mean cycles)” value was 0.3003 and 0.3873 and 0.4343 and 0.4095 and 0.438. Regarding “Ac-Lys(Man)-Gly-Lys(Man)-TEG-Asp-Glu-Val-Ser-Gly-Leu-Glu-Gln-Leu-Glu-Ser-Ile-Ile-Asn-Phe-Glu-Lys-Leu-Ala-Ala-Ala-Ala-Ala-Lys(sCy5)-NH2 ({Ac-K(Man)-Gly-K(Man)-TEG}-DEVSGLEQLESIINFEKLAAAAAK(sCy5)-NH2) [2 Mono(2), bivalent monomannosylated OVA SLP with sulfo-Cy5]”, the “average number of cell divisions per T cell (mean cycles)” value is 1.851 and 1.961 and 2.178 and 1.94 and 2.008 and 2.005. In the case of “Ac-Lys(triMan)-Gly-Lys(triMan)-TEG-Asp-Glu-Val-Ser-Gly-Leu-Glu-Gln-Leu-Glu-Ser-Ile-Ile-Asn-Phe-Glu-Lys-Leu-Ala-Ala-Ala-Ala-Ala-Lys(sCy5)-NH2 (DEVSGLEQLESIINFEKLAAAAAK; two Lys(triMan), TEG, sulfo-Cy5, C-amide; printed: Asp-Glu-Val-Ser-Gly-Leu-Glu-Gln-Leu-Glu-Ser-Ile-Ile-Asn-Phe-Glu-Lys-Leu-Ala-Ala-Ala-Ala-Ala-Lys) [2 Tri(5), bivalent trimannosylated OVA SLP with sulfo-Cy5]” it was 0.8018 and 0.6166 and 1.144 and 1.271 and 1.393 and 1.229. To “Ac-Lys(triMan)-TEG-Asp-Glu-Val-Ser-Gly-Leu-Glu-Gln-Leu-Glu-Ser-Ile-Ile-Asn-Phe-Glu-Lys-Leu-Ala-Ala-Ala-Ala-Ala-Lys(sCy5)-NH2 (DEVSGLEQLESIINFEKLAAAAAK; Ac-Lys(triMan)-TEG, sulfo-Cy5, C-amide; printed: Asp-Glu-Val-Ser-Gly-Leu-Glu-Gln-Leu-Glu-Ser-Ile-Ile-Asn-Phe-Glu-Lys-Leu-Ala-Ala-Ala-Ala-Ala-Lys) [1 Tri(4), monovalent trimannosylated OVA SLP with sulfo-Cy5]” belongs 1.87 and 1.461 and 1.875 and 1.671 and 1.661 and 1.884; to “Ac-Lys(Man)-Lys(Man)-Lys(Man)-Lys(Man)-Lys(Man)-Lys(Man)-TEG-Asp-Glu-Val-Ser-Gly-Leu-Glu-Gln-Leu-Glu-Ser-Ile-Ile-Asn-Phe-Glu-Lys-Leu-Ala-Ala-Ala-Ala-Ala-Lys(sCy5)-NH2 ({Ac-K(Man)-K(Man)-K(Man)-K(Man)-K(Man)-K(Man)-TEG}-DEVSGLEQLESIINFEKLAAAAAK(sCy5)-NH2) [6 Mono(3), hexavalent monomannosylated OVA SLP with sulfo-Cy5]”, 1.958 and 1.615 and 1.514 and 1.427 and 1.57 and 1.31.

As to “Ac-Lys(Man)-TEG-Asp-Glu-Val-Ser-Gly-Leu-Glu-Gln-Leu-Glu-Ser-Ile-Ile-Asn-Phe-Glu-Lys-Leu-Ala-Ala-Ala-Ala-Ala-Lys(sCy5)-NH2 ({Ac-K(Man)-TEG}-DEVSGLEQLESIINFEKLAAAAAK(sCy5)-NH2) [1 Mono(1), monovalent monomannosylated OVA SLP with sulfo-Cy5]”, the “average number of cell divisions per T cell (mean cycles)” value is 2.424 and 2.329 and 2.498 and 2.6657 and 2.752 and 2.248.
